Source: publication PMC3714604 (European journal of medicinal chemistry, 2011)
Like-named read-outs stand apart in the source and are kept apart here.

Legend:
rat brain membrane FAAH = conditions: cited from earlier work
[1] = In vitro stability in rat liver S9 fraction with NADPH-regenerating system; format: in vitro ADME; conditions: for half-life: male, Wistar, rat, s9, pH 7.4
[2] = In vitro chemical stability at alkaline pH; format: physicochemical; conditions: 1 μM, 300 nM, 100 nM
FAAH = conditions: rats; ref [24]; cited from earlier work
[3] = rat brain membrane FAAH activity, ref [24] and [38]

Structure (SMILES)	pIC50, inhibitory potency toward FAAH in vitro activity (rat brain membrane FAAH; [3])	other results
O=C(NCCc1ccccc1)Oc1cccc(-c2ccccc2)c1 [Compound 12]	6.32	
CC(C)NC(=O)Oc1cccc(-c2ccccc2)c1 [Compound 4]	6.28	half-life [1]: < 2 min
O=C(NCC1CCCCC1)Oc1cccc(-c2ccccc2)c1 [Compound 9]	7.18	
O=C(NCc1ccc2ccccc2c1)Oc1cccc(-c2ccccc2)c1 [Compound 15]	8.27	
CCCCNC(=O)Oc1cccc(-c2ccccc2)c1 [Compound 5]	6.95	half-life [1]: < 2 min
NC(=O)c1cccc(-c2cccc(OC(=O)NCc3ccc4ccccc4c3)c2)c1 [Compound 19]		pIC50, inhibitory potency toward FAAH in vitro activity (rat brain membrane FAAH): 9.20
O=C(NCCCCCCN1CCOCC1)Oc1cccc(-c2ccccc2)c1 [Compound 18]	7.40	
O=C(NC1Cc2ccccc2C1)Oc1cccc(-c2ccccc2)c1 [Compound 13]	6.67	half-life [1]: > 60 min
O=C(NCCCCc1ccccc1)Oc1cccc(-c2ccccc2)c1 [Compound 16]	8.03	dependence of pseudo half-lives on concentration at pH 9.0 [2]: No significant difference; ID50, in vivo potency on FAAH inhibition (FAAH): 0.96 mg/kg
O=C(NC12CC3CC(CC(C3)C1)C2)Oc1cccc(-c2ccccc2)c1 [Compound 10]	5.39	dependence of pseudo half-lives on concentration at pH 9.0 [2]: No significant difference; stability to in vitro liver metabolism ([1]; rat liver S9, entire testing period): remained stable for the entire testing period
O=C(NCc1ccccc1)Oc1cccc(-c2ccccc2)c1 [Compound 11]	6.86	
O=C(NC1CCC1)Oc1cccc(-c2ccccc2)c1 [Compound 7]	7.27	
CNC(=O)Oc1cccc(-c2ccccc2)c1 [Compound 3]	4.86	
O=C(NC1CCCCC1)Oc1cccc(-c2ccccc2)c1 [Compound 1]	7.20	dependence of pseudo half-lives on concentration at pH 9.0 [2]: No significant difference; ID50, in vivo potency on FAAH inhibition (FAAH): 0.81 mg/kg
CCCCCCNC(=O)Oc1cccc(-c2ccccc2)c1 [Compound 6]	7.24	
O=C(NC1CCCC1)Oc1cccc(-c2ccccc2)c1 [Compound 8]	7.47	
O=C(NCCCCCCc1ccccc1)Oc1cccc(-c2ccccc2)c1 [Compound 17]	7.89	
